According to US20070021430A1, “Novel crystalline form of a phosphoric acid salt of a dipeptidyl peptidase-iv inhibitor” (priority 2003, published 2007):

Assays:
[1] = solubility in water; format: physicochemical
[2] = solid-state stability / conversion of crystal form; format: physicochemical
Description: Form IV was prepared by heating the above monohydrate at 120° C. for about 2 h or by heating the monohydrate above 58° C. for about 8 h. Form IV is metastable and converts into the crystalline monohydrate slowly under ambient conditions and rapidly under high relative humidity (98%) at room temperature. Form IV can also be converted to anhydrate Form I in about 1 h at a temperature above 140° C.

- solubility in water [1]: high
- conversion into the crystalline monohydrate ([2]; ambient conditions): slowly
- conversion into the crystalline monohydrate ([2]; high relative humidity (98%) at room temperature): rapidly
- physical stability of the crystal form ([2]; solid state): metastable
- time for conversion to anhydrate Form I ([2]; temperature above 140° C.): about 1 h
Structure (SMILES): N[C@@H](CC(=O)N1CCn2c(nnc2C(F)(F)F)C1)Cc1cc(F)c(F)cc1F [Form IV, (2R)-4-oxo-4-[3-(trifluoromethyl)-5,6-dihydro[1,2,4]triazolo[4,3-a]pyrazin-7(8H)-yl]-1-(2,4,5-trifluorophenyl)butan-2-amine dihydrogenphosphate anhydrate Form IV]
